Experimental data: ChEMBL document CHEMBL1765075, “Discovery and structure-activity relationship of 3-aminopyrid-2-ones as potent and selective interleukin-2 inducible T-cell kinase (Itk) inhibitors” (J Med Chem, 2011)
≈ marks a conversion by molar mass, not a printed value.

Legend:
[1] = Solubility of the compound in phosphate buffer at pH 7.4 by high throughput shake flask assay; format: physicochemical
[2] = target: Mitogen-activated protein kinase 3 (Homo sapiens, UniProt P27361); assay: Inhibition of ERK1
Mitogen-activated protein kinase 3, sequence (P27361 whole entry): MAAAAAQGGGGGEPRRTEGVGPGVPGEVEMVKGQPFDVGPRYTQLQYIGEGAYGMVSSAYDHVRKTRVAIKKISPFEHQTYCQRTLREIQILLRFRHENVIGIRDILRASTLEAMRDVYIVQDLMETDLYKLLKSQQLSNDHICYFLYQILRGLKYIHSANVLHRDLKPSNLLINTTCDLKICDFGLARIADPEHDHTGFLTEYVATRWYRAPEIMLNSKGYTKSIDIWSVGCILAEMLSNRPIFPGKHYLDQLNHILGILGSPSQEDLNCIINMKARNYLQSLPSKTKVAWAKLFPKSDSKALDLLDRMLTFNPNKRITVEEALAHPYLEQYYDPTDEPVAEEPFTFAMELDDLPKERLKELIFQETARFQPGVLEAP

[3] = target: Proto-oncogene tyrosine-protein kinase receptor Ret (Homo sapiens, UniProt P07949); assay: Inhibition of RET
Proto-oncogene tyrosine-protein kinase receptor Ret, sequence (P07949 whole entry): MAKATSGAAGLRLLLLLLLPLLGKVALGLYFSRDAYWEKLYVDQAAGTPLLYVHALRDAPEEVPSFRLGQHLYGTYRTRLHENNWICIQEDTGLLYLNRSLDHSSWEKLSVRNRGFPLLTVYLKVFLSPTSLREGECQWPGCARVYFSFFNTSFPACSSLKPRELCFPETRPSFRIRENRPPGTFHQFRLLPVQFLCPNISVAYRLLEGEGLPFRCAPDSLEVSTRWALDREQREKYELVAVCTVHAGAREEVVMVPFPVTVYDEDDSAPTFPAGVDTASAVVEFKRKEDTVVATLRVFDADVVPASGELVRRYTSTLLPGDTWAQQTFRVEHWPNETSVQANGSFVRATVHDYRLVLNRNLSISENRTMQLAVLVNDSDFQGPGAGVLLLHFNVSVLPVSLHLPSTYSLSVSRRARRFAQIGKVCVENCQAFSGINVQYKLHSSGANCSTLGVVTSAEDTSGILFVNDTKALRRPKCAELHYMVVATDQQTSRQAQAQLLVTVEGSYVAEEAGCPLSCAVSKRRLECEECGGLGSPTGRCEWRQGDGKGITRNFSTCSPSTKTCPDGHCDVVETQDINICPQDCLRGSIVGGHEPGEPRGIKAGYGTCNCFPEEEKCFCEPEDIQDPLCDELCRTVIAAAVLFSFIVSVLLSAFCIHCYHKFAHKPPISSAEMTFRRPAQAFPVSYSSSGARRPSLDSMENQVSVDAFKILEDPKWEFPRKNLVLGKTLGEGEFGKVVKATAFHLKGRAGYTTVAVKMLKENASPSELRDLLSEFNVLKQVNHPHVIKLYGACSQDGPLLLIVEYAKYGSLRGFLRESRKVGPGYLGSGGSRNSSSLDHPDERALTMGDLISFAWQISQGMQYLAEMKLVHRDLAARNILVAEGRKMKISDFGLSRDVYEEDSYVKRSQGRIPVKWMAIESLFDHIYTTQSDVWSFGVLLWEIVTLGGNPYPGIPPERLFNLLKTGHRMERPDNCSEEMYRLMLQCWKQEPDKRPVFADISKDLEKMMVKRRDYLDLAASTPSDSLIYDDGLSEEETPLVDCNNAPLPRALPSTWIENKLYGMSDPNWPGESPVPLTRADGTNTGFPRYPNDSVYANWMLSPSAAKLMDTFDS

[4] = target: Vascular endothelial growth factor receptor 2 (Homo sapiens, UniProt P35968); assay: Inhibition of KDR
[5] = target: Dual specificity mitogen-activated protein kinase kinase 1 (Homo sapiens, UniProt Q02750); assay: Inhibition of MEK1
Dual specificity mitogen-activated protein kinase kinase 1, sequence (Q02750 whole entry): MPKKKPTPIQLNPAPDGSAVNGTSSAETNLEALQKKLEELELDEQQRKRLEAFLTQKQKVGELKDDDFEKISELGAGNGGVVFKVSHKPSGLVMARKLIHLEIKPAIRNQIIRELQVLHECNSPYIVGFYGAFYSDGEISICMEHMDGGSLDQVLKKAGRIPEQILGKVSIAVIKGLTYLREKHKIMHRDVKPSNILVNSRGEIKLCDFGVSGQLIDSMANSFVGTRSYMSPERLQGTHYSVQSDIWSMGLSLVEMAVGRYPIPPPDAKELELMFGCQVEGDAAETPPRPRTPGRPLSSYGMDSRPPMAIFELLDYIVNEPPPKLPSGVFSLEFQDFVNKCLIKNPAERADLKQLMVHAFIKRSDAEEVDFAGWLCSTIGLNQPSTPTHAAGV

[6] = target: Death-associated protein kinase 3 (Homo sapiens, UniProt O43293); assay: Inhibition of ZIPK
Death-associated protein kinase 3, sequence (O43293 whole entry): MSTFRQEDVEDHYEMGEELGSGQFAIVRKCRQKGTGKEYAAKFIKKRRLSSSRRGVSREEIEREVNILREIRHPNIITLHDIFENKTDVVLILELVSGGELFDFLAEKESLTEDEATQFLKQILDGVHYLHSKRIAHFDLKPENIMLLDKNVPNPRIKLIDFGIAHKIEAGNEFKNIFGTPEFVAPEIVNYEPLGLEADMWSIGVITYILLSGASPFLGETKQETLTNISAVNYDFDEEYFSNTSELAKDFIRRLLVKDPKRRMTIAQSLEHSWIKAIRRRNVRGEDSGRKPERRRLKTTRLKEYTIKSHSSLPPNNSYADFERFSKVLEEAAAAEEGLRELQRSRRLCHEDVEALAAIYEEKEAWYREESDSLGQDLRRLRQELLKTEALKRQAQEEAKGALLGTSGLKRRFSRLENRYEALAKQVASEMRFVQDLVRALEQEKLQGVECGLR

[7] = target: Tyrosine-protein kinase Lyn (Homo sapiens, UniProt P07948); assay: Inhibition of LYNA
Tyrosine-protein kinase Lyn, sequence (P07948 whole entry): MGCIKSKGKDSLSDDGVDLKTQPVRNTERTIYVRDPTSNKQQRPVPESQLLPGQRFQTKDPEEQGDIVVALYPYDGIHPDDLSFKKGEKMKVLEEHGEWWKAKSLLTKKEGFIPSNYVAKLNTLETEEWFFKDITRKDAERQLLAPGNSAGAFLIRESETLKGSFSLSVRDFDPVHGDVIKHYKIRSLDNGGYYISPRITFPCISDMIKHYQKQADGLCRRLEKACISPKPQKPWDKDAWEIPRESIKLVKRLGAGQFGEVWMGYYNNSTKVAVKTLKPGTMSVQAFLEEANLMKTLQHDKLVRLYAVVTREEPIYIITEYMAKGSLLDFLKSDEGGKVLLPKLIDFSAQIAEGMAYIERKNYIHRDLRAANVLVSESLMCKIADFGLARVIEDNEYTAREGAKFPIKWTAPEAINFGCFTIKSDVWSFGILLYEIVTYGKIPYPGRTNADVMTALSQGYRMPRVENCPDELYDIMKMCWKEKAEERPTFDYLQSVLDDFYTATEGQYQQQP

[8] = target: Cytoplasmic tyrosine-protein kinase BMX (Homo sapiens, UniProt P51813); assay: Inhibition of BMX
Cytoplasmic tyrosine-protein kinase BMX, sequence (P51813 whole entry): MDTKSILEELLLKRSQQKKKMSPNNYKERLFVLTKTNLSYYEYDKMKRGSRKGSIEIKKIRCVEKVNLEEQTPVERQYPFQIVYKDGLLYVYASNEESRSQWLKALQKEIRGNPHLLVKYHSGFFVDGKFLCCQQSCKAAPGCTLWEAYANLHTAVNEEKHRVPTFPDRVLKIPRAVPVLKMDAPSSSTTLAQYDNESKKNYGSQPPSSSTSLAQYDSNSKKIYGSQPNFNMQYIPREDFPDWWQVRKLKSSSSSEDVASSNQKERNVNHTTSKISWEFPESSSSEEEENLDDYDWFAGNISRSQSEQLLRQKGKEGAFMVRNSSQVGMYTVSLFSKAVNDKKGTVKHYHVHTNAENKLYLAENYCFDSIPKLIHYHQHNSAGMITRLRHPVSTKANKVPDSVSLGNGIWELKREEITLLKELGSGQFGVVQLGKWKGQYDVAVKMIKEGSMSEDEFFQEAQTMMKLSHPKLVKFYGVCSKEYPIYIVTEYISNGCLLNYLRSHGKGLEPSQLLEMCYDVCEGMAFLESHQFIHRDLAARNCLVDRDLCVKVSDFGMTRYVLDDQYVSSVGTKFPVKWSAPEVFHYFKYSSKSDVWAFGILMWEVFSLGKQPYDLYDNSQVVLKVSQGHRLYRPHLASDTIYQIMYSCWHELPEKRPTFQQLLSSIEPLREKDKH

[9] = target: Fibroblast growth factor receptor 4 (Homo sapiens, UniProt P22455); assay: Inhibition of FGFR4
Fibroblast growth factor receptor 4, sequence (P22455 whole entry): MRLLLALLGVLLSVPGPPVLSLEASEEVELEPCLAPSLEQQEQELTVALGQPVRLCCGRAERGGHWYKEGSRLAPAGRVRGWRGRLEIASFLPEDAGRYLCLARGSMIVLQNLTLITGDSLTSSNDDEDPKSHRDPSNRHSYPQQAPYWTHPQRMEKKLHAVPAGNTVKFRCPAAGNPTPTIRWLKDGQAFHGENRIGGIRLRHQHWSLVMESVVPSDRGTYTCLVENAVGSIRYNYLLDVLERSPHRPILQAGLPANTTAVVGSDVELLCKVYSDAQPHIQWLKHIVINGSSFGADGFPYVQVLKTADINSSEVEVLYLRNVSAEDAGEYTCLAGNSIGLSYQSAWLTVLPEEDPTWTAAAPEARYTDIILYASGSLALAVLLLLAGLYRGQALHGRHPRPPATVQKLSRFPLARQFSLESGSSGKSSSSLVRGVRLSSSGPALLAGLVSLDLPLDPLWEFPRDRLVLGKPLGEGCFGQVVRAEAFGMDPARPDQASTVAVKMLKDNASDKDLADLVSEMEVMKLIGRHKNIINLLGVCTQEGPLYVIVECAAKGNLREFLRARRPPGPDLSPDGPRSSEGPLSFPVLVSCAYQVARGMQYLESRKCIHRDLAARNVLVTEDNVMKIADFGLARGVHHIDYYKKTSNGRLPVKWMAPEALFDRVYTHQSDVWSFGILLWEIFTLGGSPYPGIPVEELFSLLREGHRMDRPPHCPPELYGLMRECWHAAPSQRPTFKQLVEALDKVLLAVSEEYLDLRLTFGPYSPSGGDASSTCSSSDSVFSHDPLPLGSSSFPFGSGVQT

In the case of `CNc1cncc(-c2c[nH]c(=O)c(NC(=O)c3ccc(N4CCC[C@H]4CN4CCCC4)cc3)c2)n1`, the solubility thermodynamic [1] is reported as 150 µg/mL (≈ 317 µM), the Ki [2] is reported as > 2000 nM and the Ki [3] is reported as > 1000 nM. The Ki [4] was 430 nM, the Ki [5] was > 1000 nM and the Ki [6] was > 1000 nM. The Ki [7] was > 1000 nM, the Ki [8] was > 1000 nM and the Ki [9] was > 1000 nM.
